Activity calls are given as the source filed them. The rule behind the calls is not given here.
Test: TIM10 isogenic strain growth inhibitors – luminescence, S. cerevisiae, counter-screen for tim23-1 inhibitor project, SAR follow-up (AID 602380)
Settings: S. cerevisiae TIM10 isogenic control strain, BacTiter-Glo growth luminescence

**Q.** Which IC50 does the source give for `Cn1c(SCc2cccc(/C(N)=N/OC(=O)c3ccc(Cl)cc3)c2)nnc1C(F)(F)F` here?
**A.** 3.59 µM

**Q.** Which IC50 does the source give for `O=C(Nc1ccn[nH]1)c1ccc(Br)cc1Cl` here?
**A.** > 99 µM (inactive)

**Q.** Which IC50 does the source give for `Cc1nc(SCc2cc(=O)n3cc(Br)ccc3n2)c(C#N)c(C)c1C` here?
**A.** > 99 µM (inactive)

**Q.** With `Cc1nc2scc(C)n2c(=O)c1S(=O)(=O)Nc1ccc(N2CCOCC2)c(Cl)c1` as the compound, how does the IC50 read?
**A.** > 99 µM (inactive)

**Q.** With `COc1ccc(/C=C/C(=O)Nc2ccc3c(c2)CCC3)cc1OC` as the compound, how does the IC50 read?
**A.** 11.2 µM

**Q.** For `C(/C=C/c1ccccc1)=NNc1nc2ccccc2[nH]1`, which IC50 is on record?
**A.** 8.98 µM

**Q.** Which IC50 does the source give for `Cc1nn(Cc2cccc(C(=O)O/N=C(\N)c3ccc(Cl)cc3)c2)c(C)c1Br` here?
**A.** 1.7 µM

**Q.** Which IC50 does the source give for `CCN(C(=O)c1cccc2ncccc12)c1c(N)n(Cc2ccccc2)c(=O)[nH]c1=O` here?
**A.** > 99 µM (inactive)

**Q.** For `Cc1nc2scc(C)n2c(=O)c1S(=O)(=O)Nc1ccc2c(c1)OCCO2`, which IC50 is on record?
**A.** 80.5 µM

**Q.** Which IC50 does the source give for `Cc1nc2scc(C)n2c(=O)c1S(=O)(=O)Nc1cc(C(F)(F)F)ccc1Cl` here?
**A.** 79.2 µM

**Q.** Which IC50 does the source give for `N/C(=N\OC(=O)c1ccc(Cl)cc1)c1cccc(CS(=O)(=O)c2ccccn2)c1` here?
**A.** 19.2 µM

**Q.** Which IC50 does the source give for `O=C(Nc1ccc2nc(-c3ccc(Br)o3)[nH]c2c1)c1cccs1` here?
**A.** 30.9 µM

**Q.** Which IC50 does the source give for `Cc1nc2scc(C)n2c(=O)c1S(=O)(=O)Nc1ccc(Oc2ccc(Cl)cc2)cc1` here?
**A.** > 99 µM (inactive)

**Q.** For `Cc1c2c(n(Cc3ccco3)c1C)N=CN1CCS(=O)(=O)N=C21`, which IC50 is on record?
**A.** 48.5 µM

**Q.** For `N#Cc1c(-c2ccccc2)cc(-c2ccc(O)cc2)nc1N`, which IC50 is on record?
**A.** 4.52 µM

**Q.** With `CCOc1cc2ccccc2cc1C(=O)O/N=C(\N)c1ccc(Cl)cc1` as the compound, how does the IC50 read?
**A.** 2.42 µM

**Q.** Which IC50 does the source give for `N/C(=N\OC(=O)c1ccc2ncsc2c1)c1ccccc1` here?
**A.** 9.17 µM

**Q.** With `N/C(=N\OC(=O)c1ccc(Cl)cc1)c1ccc(-c2csnn2)cc1` as the compound, how does the IC50 read?
**A.** > 99 µM (inactive)

**Q.** With `Cc1nc2sc(C)c(C)n2c(=O)c1S(=O)(=O)Nc1ccc(Br)cc1` as the compound, how does the IC50 read?
**A.** > 99 µM (inactive)

**Q.** With `CS(=O)(=O)Nc1ccc(/C(N)=N/OC(=O)c2ccccc2Cl)cc1` as the compound, how does the IC50 read?
**A.** 66.4 µM

**Q.** With `Cc1nc2scc(C)n2c(=O)c1S(=O)(=O)Nc1ccc(OC(F)(F)F)cc1` as the compound, how does the IC50 read?
**A.** 21.6 µM

**Q.** For `N/C(=N\OC(=O)c1ccc(F)cc1)c1ccc(Br)cc1`, which IC50 is on record?
**A.** 39.8 µM

**Q.** With `O=C(CSc1cccc[n+]1[O-])Nc1ccccc1Oc1ccccc1` as the compound, how does the IC50 read?
**A.** 0.806 µM

**Q.** With `O=C(O)c1cccnc1SCc1cc(=O)n2cc(Br)ccc2n1` as the compound, how does the IC50 read?
**A.** > 99 µM (inactive)

**Q.** Which IC50 does the source give for `Cc1ccc(-c2cc(NC(=O)c3c(C)noc3C)nc(-c3ccccc3)c2)cc1` here?
**A.** > 99 µM (inactive)

**Q.** Which IC50 does the source give for `Cc1cc(OCC(=O)O/N=C(\N)Cc2ccc(Cl)cc2)ccc1Br` here?
**A.** 2.1 µM

**Q.** For `Nc1cccc(Oc2ccc(Oc3cccc(N)c3)cc2)c1`, which IC50 is on record?
**A.** > 99 µM (inactive)

**Q.** Which IC50 does the source give for `CC(C)(C)c1csc(NC(=O)c2ccc(Cl)s2)n1` here?
**A.** 9.68 µM

**Q.** With `Cc1nc2scc(C)n2c(=O)c1S(=O)(=O)Nc1ccc(Cl)c(C(F)(F)F)c1` as the compound, how does the IC50 read?
**A.** 91.1 µM

**Q.** For `N/C(=N\OC(=O)c1ccc(Cl)c(Cl)c1)c1cccc(CS(=O)(=O)c2ccccn2)c1`, which IC50 is on record?
**A.** 15.6 µM

**Q.** Which IC50 does the source give for `Cc1ccc2nc(CS(=O)(=O)c3ncccc3Cl)cc(=O)n2c1` here?
**A.** > 99 µM (inactive)

**Q.** With `Cc1noc(C)c1S(=O)(=O)Nc1ccc(-c2cn3c(n2)SCC3)cc1` as the compound, how does the IC50 read?
**A.** 79.2 µM

**Q.** For `N#Cc1ccc(C2N=C(c3ccccc3)NO2)cc1` (centres undefined), which IC50 is on record?
**A.** > 99 µM (inactive)

**Q.** For `O=C(Nc1ccc(-c2cn3ccccc3n2)cc1)c1cccs1`, which IC50 is on record?
**A.** 7.93 µM

**Q.** Which IC50 does the source give for `O=C(CSCc1ccccc1)Nc1cc(S(=O)(=O)N2CCOCC2)ccc1Oc1ccccc1` here?
**A.** > 99 µM (inactive)

**Q.** Which IC50 does the source give for `CN(C(=O)c1cccc(S(C)(=O)=O)c1)c1c(N)n(Cc2ccccc2)c(=O)[nH]c1=O` here?
**A.** > 99 µM (inactive)

**Q.** Which IC50 does the source give for `CC(C)Cn1cnc2c(c(-c3ccccc3)c(-c3ccccc3)n2Cc2ccco2)c1=N` here?
**A.** 34.3 µM

**Q.** Which IC50 does the source give for `Cc1nc2scc(C)n2c(=O)c1S(=O)(=O)Nc1ccc(N2CCN(S(C)(=O)=O)CC2)cc1` here?
**A.** > 99 µM (inactive)

**Q.** Which IC50 does the source give for `Cc1nc2scc(C)n2c(=O)c1S(=O)(=O)Nc1ccc(F)cc1Cl` here?
**A.** 68.1 µM

**Q.** For `N/C(=N\OC(=O)c1ccc2ncsc2c1)c1ccc(Cl)cc1Cl`, which IC50 is on record?
**A.** 2.57 µM

**Q.** Which IC50 does the source give for `Cc1nc2scc(C)n2c(=O)c1S(=O)(=O)Nc1ccc(N2CCN(C(=O)C(C)C)CC2)cc1` here?
**A.** > 99 µM (inactive)

**Q.** With `COc1cc2c(cc1OC)/C(=C/c1ccc(Cl)cc1)C(=O)OC2` as the compound, how does the IC50 read?
**A.** 2.61 µM

**Q.** For `Cc1ccc(S(=O)(=O)Cc2cc(=O)n3ccccc3n2)nc1`, which IC50 is on record?
**A.** > 99 µM (inactive)

**Q.** With `CCN1CCc2nc3sc(C(=O)Nc4cc(Cl)ccc4OC)c(N)c3cc2C1` as the compound, how does the IC50 read?
**A.** > 99 µM (inactive)

**Q.** Which IC50 does the source give for `Cc1ccc2nc(N3C(=O)CNC3=S)sc2c1` here?
**A.** 6.81 µM

**Q.** Which IC50 does the source give for `C=C1CCc2c([nH]c3ccc(OCC(C)C)cc23)C1=O` here?
**A.** 1.59 µM

**Q.** Which IC50 does the source give for `O=C(Nc1nc2ccccc2s1)C1CCCN1S(=O)(=O)c1ccc(Cl)cc1` (centres undefined) here?
**A.** 6.26 µM

**Q.** Which IC50 does the source give for `CN1CCc2nc3sc(C(=O)C45CC6CC(CC(C6)C4)C5)c(N)c3cc2C1` here?
**A.** 42.1 µM

**Q.** Which IC50 does the source give for `CCn1c(N2CCN(S(=O)(=O)c3ccc(OC)cc3)CC2)nc2ccccc21` here?
**A.** 15.8 µM

**Q.** For `N/C(=N\OC(=O)c1ccccc1)c1ccc(F)cc1F`, which IC50 is on record?
**A.** 16.7 µM

**Q.** For `O=C1OC(c2ccccc2)=N/C1=C\C=C\c1ccco1`, which IC50 is on record?
**A.** 6.78 µM

**Q.** For `O=c1cc(C(F)F)oc2c1ccc1ccccc12`, which IC50 is on record?
**A.** > 99 µM (inactive)

**Q.** With `CN1CCN(c2nc(-c3cccnc3)nc3ccccc23)CC1` as the compound, how does the IC50 read?
**A.** > 99 µM (inactive)

**Q.** For `N#C/C(=C\c1ccc(Cl)cc1)C(=O)Nc1cccnc1`, which IC50 is on record?
**A.** 14.2 µM

**Q.** Which IC50 does the source give for `O=C(N/N=C/C(Cl)=C\c1ccccc1)c1cccs1` here?
**A.** 9.48 µM

**Q.** For `O=C(NN=C/C=C\c1ccco1)c1cccs1`, which IC50 is on record?
**A.** 4.48 µM

**Q.** For `Cc1nc2scc(C)n2c(=O)c1S(=O)(=O)Nc1ccc(N2CCOCC2)cc1`, which IC50 is on record?
**A.** > 99 µM (inactive)

**Q.** Which IC50 does the source give for `Cc1ccc2nc(CSc3ncc(C(F)(F)F)cc3Cl)cc(=O)n2c1` here?
**A.** > 99 µM (inactive)

**Q.** For `O=S(=O)(Nc1ccc(-c2cn3c(n2)SCC3)cc1)c1cccnc1`, which IC50 is on record?
**A.** > 99 µM (inactive)

**Q.** For `CCOc1ccc(C(=O)O/N=C(\N)c2ccc(OC)cc2)cc1OCC`, which IC50 is on record?
**A.** 5.57 µM

**Q.** With `Cc1ccc2nc(N3CCN(S(=O)(=O)C4CC4)CC3)[nH]c2c1` as the compound, how does the IC50 read?
**A.** 49.4 µM

**Q.** For `COc1ccc([N+](=O)[O-])cc1NS(=O)(=O)c1c(C)nc2scc(C)n2c1=O`, which IC50 is on record?
**A.** > 99 µM (inactive)

**Q.** For `N=c1c2c(-c3ccccc3)c(-c3ccccc3)n(Cc3ccco3)c2ncn1CCCN1CCOCC1`, which IC50 is on record?
**A.** > 99 µM (inactive)

**Q.** With `Cc1ccc(C2=NNC(c3ccc(Cl)cc3Cl)S2)cc1` (centres undefined) as the compound, how does the IC50 read?
**A.** 5.15 µM

**Q.** With `O=c1cc(CSc2ccc(S(=O)(=O)N3CCOCC3)cn2)nc2ccc(Br)cn12` as the compound, how does the IC50 read?
**A.** 42.9 µM

**Q.** For `COc1ccc(/C(N)=N/OC(=O)c2ccc(C(F)(F)F)cc2)c(OC)c1`, which IC50 is on record?
**A.** 72.7 µM

**Q.** With `NC(=O)C1CCN(c2nc(-c3cccnc3)nc3ccccc23)CC1` as the compound, how does the IC50 read?
**A.** > 99 µM (inactive)

**Q.** With `Oc1ccc(Oc2ccc(Oc3ccc(O)cc3)cc2)cc1` as the compound, how does the IC50 read?
**A.** 5.69 µM

**Q.** For `Cc1cccn2c(=O)cc(CSc3cc(C(=O)NC4CC4)c4ccccc4n3)nc12`, which IC50 is on record?
**A.** > 99 µM (inactive)

**Q.** With `CCCCOc1ccc(C(=O)O/N=C(\N)c2cccc(Br)c2)cc1` as the compound, how does the IC50 read?
**A.** 20.8 µM

**Q.** For `Cc1ccc(Nc2nc(-c3cccnc3)nc3ccccc23)cc1`, which IC50 is on record?
**A.** 4.04 µM

**Q.** For `Cc1ccc(OCC(=O)O/N=C(\N)Cc2ccc(Cl)cc2)cc1`, which IC50 is on record?
**A.** 20.4 µM

**Q.** Which IC50 does the source give for `CCCN(C(=O)c1ccc([N+](=O)[O-])c(C)c1)c1c(N)n(Cc2ccccc2)c(=O)[nH]c1=O` here?
**A.** > 99 µM (inactive)

**Q.** With `Cc1ccc(/C(N)=N/OC(=O)c2ccccc2)cc1F` as the compound, how does the IC50 read?
**A.** 1.37 µM

**Q.** Which IC50 does the source give for `N/C(=N\OC(=O)c1cccc2ccccc12)c1ccc(Cl)cc1` here?
**A.** 0.781 µM

**Q.** For `Cc1nc2scc(C)n2c(=O)c1S(=O)(=O)Nc1ccc(CN2CCCCC2)cc1`, which IC50 is on record?
**A.** > 99 µM (inactive)

**Q.** Which IC50 does the source give for `N/C(=N\OC(=O)c1ccc(Cl)cc1)c1ccc(S(=O)(=O)N2CCOCC2)cc1` here?
**A.** 4.81 µM

**Q.** For `Cc1nc2scc(C)n2c(=O)c1S(=O)(=O)Nc1cccc(C(F)(F)F)c1`, which IC50 is on record?
**A.** 35.6 µM

**Q.** Which IC50 does the source give for `N#Cc1c(-c2ccc([N+](=O)[O-])cc2)cc(-c2ccccc2)nc1N` here?
**A.** > 99 µM (inactive)
